Reference: paper PMC4356482 (Bioorganic & medicinal chemistry letters, 2011)

Legend:
Type in all cases: binding
[1] = molecular target: T1, fatty acid synthase I (FAS I) (Mycobacterium tuberculosis, UniProt P95029); test: STD-NMR
[2] = molecular target: T1, fatty acid synthase I (FAS I); test: STD-NMR, competition titration with PZA
[3] = molecular target: T1, fatty acid synthase I (FAS I); test: biochemical

Structure (SMILES)	STD-NMR, competition titration with PZA [2]	further results
C/C=C/C/C=C/CCC(=O)[C@H]1O[C@H]1C(N)=O [Cerulenin]	–	STD-NMR (positive control, 350 μM cerulenin) [1]: displays signals corresponding to cerulenin resonances that are indicative of cerulenin binding to Mtb FAS I
NC(=O)C1=CN([C@@H]2O[C@H](COP(=O)(O)OP(=O)(O)OC[C@H]3O[C@@H](n4cnc5c(N)ncnc54)[C@H](OP(=O)(O)O)[C@@H]3O)[C@@H](O)[C@H]2O)C=CC1 [NADPH]	Consistent with the binding of NADPH to Mtb FAS I the intensity of the NADPH resonances increases.	–
O=C(O)c1cnccn1 [POA, pyrazinoic acid]	although POA binds reversibly to Mtb FAS I it does not compete with PZA since PZA is apparently not displaced	–
NC(=O)c1cnccn1 [PZA, Pyrazinamide]	–	Kd [3]: 70 to 123 µM
